Reference: PubChem BioAssay (NCI)
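GI50 marks 50% less growth. TGI: total growth inhibition.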

Experiments:
Assay in all cases: growth of human tumour cells (NCI), 384-well format
[1] = tested on: HCT-116 colon
[2] = tested on: K-562 leukemia
[3] = tested on: CAKI-1 renal
[4] = tested on: NCI-H23 lung
[5] = tested on: BT-549 breast
[6] = tested on: MDA-MB-468 breast
[7] = tested on: SNB-75 CNS
[8] = tested on: PC-3 prostate
[9] = tested on: UACC-257 melanoma
[10] = tested on: HCT-15 colon
[11] = tested on: UO-31 renal
[12] = tested on: NCI-H322M lung
[13] = tested on: HOP-92 NSCLC
[14] = tested on: HCC-2998 colon
[15] = tested on: SW-620 colon
[16] = tested on: COLO 205 colon
[17] = tested on: UACC-62 melanoma
[18] = tested on: SK-MEL-28 melanoma
[19] = tested on: 786-0 renal
[20] = tested on: SK-OV-3 ovarian
[21] = tested on: NCI-H226 lung
[22] = tested on: TK-10 renal
[23] = tested on: SF-268 CNS
[24] = tested on: SN12C renal
[25] = tested on: RXF 393 renal
[26] = tested on: ACHN renal
[27] = tested on: MCF7 breast
[28] = tested on: HOP-62 NSCLC
[29] = tested on: DU-145 prostate
[30] = tested on: HS 578T breast
[31] = tested on: IGROV1 ovarian
[32] = tested on: MOLT-4 leukemia
[33] = tested on: SK-MEL-2 melanoma
[34] = tested on: LOX IMVI melanoma
[35] = tested on: M14 melanoma
[36] = tested on: MDA-MB-231 breast
[37] = tested on: SF-295 CNS
[38] = tested on: A498 renal
[39] = tested on: A549 NSCLC
[40] = tested on: OVCAR-5 ovarian
[41] = tested on: OVCAR-4 ovarian
[42] = tested on: T-47D breast
[43] = tested on: U251 glioblastoma
[44] = tested on: RPMI-8226 leukemia
[45] = tested on: MDA-MB-435 melanoma
[46] = tested on: CCRF-CEM leukemia
[47] = tested on: HT29 colon
[48] = tested on: NCI-H460 NSCLC
[49] = tested on: EKVX NSCLC
[50] = tested on: OVCAR-3 ovarian
[51] = tested on: NCI/ADR-RES ovarian
[52] = tested on: HL-60(TB) leukemia
[53] = tested on: MALME-3M melanoma
[54] = tested on: NCI-H522 lung
[55] = tested on: SK-MEL-5 melanoma
[56] = tested on: KM12 colon
[57] = tested on: SF-539 CNS
[58] = tested on: SR leukemia

O=C(O)c1ccc2c(c1)nc(Nc1cccc(Cl)c1)c1ccncc12
GI50 [1]: 1530 nM
TGI [1]: 3080 nM
GI50 [2]: 1500 nM
TGI [2]: 3320 nM
GI50 [3]: 1530 nM
TGI [3]: 3730 nM
GI50 [4]: 1420 nM
TGI [4]: 2970 nM
GI50 [5]: 1020 nM
TGI [5]: 2670 nM
GI50 [6]: 656 nM
TGI [6]: 2050 nM
GI50 [7]: 1410 nM
TGI [7]: 3850 nM
GI50 [8]: 1600 nM
TGI [8]: 3690 nM
GI50 [9]: 1570 nM
TGI [9]: 3460 nM
GI50 [10]: 1740 nM
TGI [10]: 3660 nM
GI50 [11]: 2150 nM
TGI [11]: 6110 nM
GI50 [12]: 1080 nM
TGI [12]: 3290 nM
GI50 [13]: 1420 nM
TGI [13]: 4650 nM
GI50 [14]: 1380 nM
TGI [14]: 3890 nM
GI50 [15]: 2030 nM
TGI [15]: 4790 nM
GI50 [16]: 1860 nM
TGI [16]: 4140 nM
GI50 [17]: 1370 nM
TGI [17]: 2770 nM
GI50 [18]: 1470 nM
TGI [18]: 3160 nM
GI50 [19]: 1750 nM
TGI [19]: 4750 nM
GI50 [20]: 1430 nM
TGI [20]: 3940 nM
GI50 [21]: 1260 nM
TGI [21]: 2660 nM
GI50 [22]: 2140 nM
TGI [22]: 5810 nM
GI50 [23]: 1150 nM
TGI [23]: 2870 nM
GI50 [24]: 1500 nM
TGI [24]: 3690 nM
GI50 [25]: 1560 nM
TGI [25]: 3980 nM
GI50 [26]: 2520 nM
TGI [26]: 8010 nM
GI50 [27]: 1490 nM
TGI [27]: 4060 nM
GI50 [28]: 1730 nM
TGI [28]: 3860 nM
GI50 [29]: 1710 nM
TGI [29]: 5200 nM
GI50 [30]: 445 nM
TGI [30]: 2330 nM
GI50 [31]: 1950 nM
TGI [31]: 4640 nM
GI50 [32]: 1400 nM
TGI [32]: 2730 nM
GI50 [33]: 2970 nM
TGI [33]: 4540 nM
GI50 [34]: 1870 nM
TGI [34]: 3800 nM
GI50 [35]: 1270 nM
TGI [35]: 3080 nM
GI50 [36]: 1560 nM
TGI [36]: 3700 nM
GI50 [37]: 1810 nM
TGI [37]: 4590 nM
GI50 [38]: 1420 nM
TGI [38]: 3310 nM
GI50 [39]: 2990 nM
TGI [39]: > 100000 nM
GI50 [40]: 1770 nM
TGI [40]: 8810 nM
GI50 [41]: 1540 nM
TGI [41]: 6770 nM
GI50 [42]: 1400 nM
TGI [42]: 3550 nM
GI50 [43]: 888 nM
TGI [43]: 2460 nM
GI50 [44]: 1880 nM
TGI [44]: 3350 nM
GI50 [45]: 1450 nM
TGI [45]: 3330 nM
GI50 [46]: 1180 nM
TGI [46]: 2420 nM
GI50 [47]: 2950 nM
TGI [47]: 10100 nM
GI50 [48]: 2280 nM
TGI [48]: 7890 nM
GI50 [49]: 1480 nM
TGI [49]: 3930 nM
GI50 [50]: 399 nM
TGI [50]: 1950 nM
GI50 [51]: 1690 nM
TGI [51]: 3280 nM
GI50 [52]: 1540 nM
TGI [52]: 2930 nM
GI50 [53]: 1040 nM
TGI [53]: 2560 nM
GI50 [54]: 521 nM
TGI [54]: 1840 nM
GI50 [55]: 1400 nM
TGI [55]: 2710 nM
GI50 [56]: 1890 nM
TGI [56]: 4380 nM
GI50 [57]: 1190 nM
TGI [57]: 3000 nM
GI50 [58]: 1450 nM
TGI [58]: 2770 nM
